Assay results reported in patent US20260027214A1, “PHARMACEUTICAL COMPOSITION FOR TREATING OR PREVENTING INFLAMMATION CAUSED BY ACANTHAMOEBA” (priority 2022, published 2026).

Key:
Acanthamoeba polyphaga [1] = assay: Adhesion test: Acanthamoeba adhered to polypropylene test pieces after 60 min immersion; type: cell-based
Description: (§1) An Acanthamoeba solution containing 1×10^5 Acanthamoeba per mL of solution was prepared by dispersing Acanthamoeba (Acanthamoeba polyphaga, obtained from American Type Culture Collection (ATCC), 30872™) in phosphate-buffered saline as solvent.
(§2) The polypropylene test pieces used in the adhesion test described below were polypropylene from Johoku Co., Ltd., product number: PP_A3, cut to dimensions of 15 mm length×15 mm width×0.25 mm thickness from original dimensions of 320 mm length×440 mm width×0.25 mm thickness for each experiment.
(§3) To verify the anti-adhesive properties and antiprotozoal activity of the lysozyme-chitosan complex (LYZOX (registered trademark)), adhesion tests and cell death tests were conducted.
(§4) Specifically, the above-mentioned Acanthamoeba solution was added to the above-mentioned lysozyme-chitosan complex (LYZOX (registered trademark)) solution to prepare mixed solutions containing 0.1 μg, 1 μg, 10 μg, 100 μg, and 1000 μg of lysozyme-chitosan complex per 1 mL of mixed solution. Separately, a control solution with 0 μg/mL concentration containing no lysozyme-chitosan complex was prepared. The same sterilized water used in preparing the lysozyme-chitosan complex was used as dilution liquid for concentration adjustment. All six solutions contained 1×10^5 Acanthamoeba per 1 mL of solution.
(§5) The above-mentioned polypropylene test pieces were immersed in the prepared mixed solutions and left standing; after 60 minutes of immersion, the test pieces were removed from the mixed solutions, washed with phosphate-buffered saline (PBS, obtained from FUJIFILM Wako Pure Chemical Corporation, product number: 166-23555), and dried. The surface of the obtained test pieces was observed under a biological microscope (obtained from Nikon, product number: ECLIPSE E-200), and Acanthamoeba adhered within a 5×5 mm observation area on the test piece surface were counted. Subsequently, trypan blue was applied to the observation area, staining dead Acanthamoeba, and the number of dead Acanthamoeba was counted.
(§6) Acanthamoeba were counted and the total number of adhered Acanthamoeba, number of dead Acanthamoeba, and Acanthamoeba mortality rate were measured in the same manner as Experimental Example 1, except that the mixture solution of lysozyme and chitosan (Table 2), lysozyme alone (Table 3), and chitosan alone (Table 4) described above were used instead of the lysozyme-chitosan complex (LYZOX (registered trademark)) solution of Experimental Example 1.

Acanthamoeba polyphaga [2] = assay: Cell death test: trypan blue staining of adhered Acanthamoeba; type: cell-based; conditions: for Acanthamoeba inhibition effects (antiprotozoal effects): in words, compared with complex at 100 μg/mL and 1000 μg/mL; for Acanthamoeba mortality rate: 60 min immersion, 1×10^5 Acanthamoeba/mL
Description: as §1, §2, §3, §4, §5, §6

Substance	Total number of adhered Acanthamoeba (Acanthamoeba polyphaga [1]; 0.05 μg/mL, 1×10^5 Acanthamoeba/mL)	Total number of adhered Acanthamoeba (Acanthamoeba polyphaga [1]; 0.5 μg/mL, 1×10^5 Acanthamoeba/mL)	Total number of adhered Acanthamoeba (Acanthamoeba polyphaga [1]; 5 μg/mL, 1×10^5 Acanthamoeba/mL)	Total number of adhered Acanthamoeba (Acanthamoeba polyphaga [1]; 50 μg/mL, 1×10^5 Acanthamoeba/mL)	Total number of adhered Acanthamoeba (Acanthamoeba polyphaga [1]; 500 μg/mL, 1×10^5 Acanthamoeba/mL)	Acanthamoeba inhibition effects (antiprotozoal effects) (Acanthamoeba polyphaga [2])	Total number of adhered Acanthamoeba (Acanthamoeba polyphaga [1]; 0.05 μg/mL, 1×10^5 Acanthamoeba/mL (Table 4))	Total number of adhered Acanthamoeba (Acanthamoeba polyphaga [1]; 0.5 μg/mL, 1×10^5 Acanthamoeba/mL (Table 4))	Total number of adhered Acanthamoeba (Acanthamoeba polyphaga [1]; 5 μg/mL, 1×10^5 Acanthamoeba/mL (Table 4))	Total number of adhered Acanthamoeba (Acanthamoeba polyphaga [1]; 50 μg/mL, 1×10^5 Acanthamoeba/mL (Table 4))	Total number of adhered Acanthamoeba (Acanthamoeba polyphaga [1]; 500 μg/mL, 1×10^5 Acanthamoeba/mL (Table 4))	Acanthamoeba mortality rate (Acanthamoeba polyphaga [2]; 0.05 μg/mL)	Acanthamoeba mortality rate (Acanthamoeba polyphaga [2]; 0.5 μg/mL)	Acanthamoeba mortality rate (Acanthamoeba polyphaga [2]; 5 μg/mL)	Acanthamoeba mortality rate (Acanthamoeba polyphaga [2]; 50 μg/mL)	Acanthamoeba mortality rate (Acanthamoeba polyphaga [2]; 500 μg/mL)
Lysozyme: egg white lysozyme with molecular weight of approximately 14300 (Biocon (Japan) Ltd.)	119 count/mm^2	94.2 count/mm^2	87.2 count/mm^2	67.8 count/mm^2	42.1 count/mm^2	incomplete	–	–	–	–	–	–	–	–	–	–
poly-β1→4-glucosamine [Chitosan]	–	–	–	–	–	incomplete	108 count/mm2	89.2 count/mm2	82.1 count/mm2	65.3 count/mm2	49.7 count/mm2	3.5%	3.8%	3.9%	7.9%	37.4%
